Measurements as given in the NIST ThermoML archive (doi:10.1016/j.jct.2019.02.015).
± gives the expanded uncertainty stated by the source.

How the values were obtained:
[1] = 101.33 kPa, Liquid; for speed of sound: Single path-length method; for mass density: Vibrating tube method
[2] = refractive index (Na D-line) (dimensionless); settings: 101.33 kPa, Liquid, Standard Abbe refractometry
[3] = wn = mass fraction of the nth substance listed; settings: 298.15 K, 100 kPa, Liquid; for viscosity: Falling or rolling sphere viscometry; for speed of sound: Frequency=3 MHz, Single path-length method; for mass density: Vibrating tube method
[4] = refractive index (Na D-line) (dimensionless); wn = mass fraction of the nth substance listed; settings: 298.15 K, 100 kPa, Liquid, Standard Abbe refractometry

CCCCCC(=O)[O-].CCCCCC[NH+](CCCCCC)CCCCCC [trihexylammonium hexanoate]
viscosity [mPa·s], [1]
Settings	Cone and plate viscometry	Falling or rolling sphere viscometry
293.15 K	–	13.86 ± 2
298.15 K	12.53 ± 4	11.44 ± 2
303.15 K	–	9.55 ± 2
308.15 K	–	8.05 ± 2
313.15 K	–	6.86 ± 2
318.15 K	–	5.9 ± 2
323.15 K	–	5.11 ± 2
328.15 K	–	4.48 ± 2
333.15 K	–	3.95
338.15 K	–	3.5
343.15 K	–	3.12

Settings	mass density, [1] [kg/m3]	refractive index, [2]	speed of sound, [1] [m/s]
293.15 K	849.82 ± 4.1	1.4432 ± 0.0014	1353.3 ± 5.4
298.15 K	846.21 ± 4.1	1.4412 ± 0.0014	1335.7 ± 5.4
303.15 K	842.59 ± 4.1	1.4395 ± 0.0014	1317.8 ± 5.4
308.15 K	838.96 ± 4.1	1.4375 ± 0.0014	1300.1 ± 5.4
313.15 K	835.33 ± 4	1.4355 ± 0.0014	1282.2 ± 5.4
318.15 K	831.69 ± 4	1.4336 ± 0.0014	1264.9 ± 5.4
323.15 K	828.04 ± 4	1.4315 ± 0.0014	1247.7 ± 5.4
328.15 K	824.38 ± 4	1.4297 ± 0.0014	1230.6 ± 5.4
333.15 K	820.72 ± 3.9	1.4278 ± 0.0014	1213.7 ± 5.4
338.15 K	817.03 ± 3.9	1.4258 ± 0.0014	1196.9 ± 5.4
343.15 K	813.33 ± 3.9	1.4238 ± 0.0014	1180.3 ± 5.4

CCCCCCCC(=O)[O-].CCCCCC[NH+](CCCCCC)CCCCCC [trihexylammonium octanoate]
viscosity [mPa·s], [1]
Settings	Cone and plate viscometry	Falling or rolling sphere viscometry
293.15 K	–	17.02 ± 2.1
298.15 K	15.9 ± 4	13.93 ± 2
303.15 K	–	11.55 ± 2
308.15 K	–	9.68 ± 2
313.15 K	–	8.21 ± 2
318.15 K	–	7.02 ± 2
323.15 K	–	6.06 ± 2
328.15 K	–	5.27 ± 2
333.15 K	–	4.62 ± 2
338.15 K	–	4.1 ± 2
343.15 K	–	3.65

Settings	mass density, [1] [kg/m3]	refractive index, [2]	speed of sound, [1] [m/s]
293.15 K	851.2 ± 4.1	1.4459 ± 0.0014	1365.7 ± 5.4
298.15 K	847.63 ± 4.1	1.4441 ± 0.0014	1347.7 ± 5.4
303.15 K	844.06 ± 4.1	1.4419 ± 0.0014	1329.8 ± 5.4
308.15 K	840.48 ± 4.1	1.4399 ± 0.0014	1312.2 ± 5.4
313.15 K	836.9 ± 4	1.4381 ± 0.0014	1294.7 ± 5.4
318.15 K	833.31 ± 4	1.4359 ± 0.0014	1277.4 ± 5.4
323.15 K	829.72 ± 4	1.4341 ± 0.0014	1260.2 ± 5.4
328.15 K	826.11 ± 4	1.4322 ± 0.0014	1243.2 ± 5.4
333.15 K	822.5 ± 4	1.4299 ± 0.0014	1226.5 ± 5.4
338.15 K	818.87 ± 3.9	1.4278 ± 0.0014	1209.9 ± 5.4
343.15 K	815.25 ± 3.9	1.4258 ± 0.0014	1194 ± 5.4

CCCC(=O)[O-].CCCCCC[NH+](CCCCCC)CCCCCC [trihexylammonium butanoate]
viscosity [mPa·s], [1]
Settings	Cone and plate viscometry	Falling or rolling sphere viscometry
293.15 K	–	13.26 ± 2
298.15 K	11.52 ± 4	10.91 ± 2
303.15 K	–	9.09 ± 2
308.15 K	–	7.66 ± 2
313.15 K	–	6.52 ± 2
318.15 K	–	5.6 ± 2
323.15 K	–	4.85 ± 2
328.15 K	–	4.24 ± 2
333.15 K	–	3.73
338.15 K	–	3.3
343.15 K	–	2.94

Settings	mass density, [1] [kg/m3]	refractive index, [2]	speed of sound, [1] [m/s]
293.15 K	848.02 ± 4.1	1.4419 ± 0.0014	1345 ± 5.4
298.15 K	844.32 ± 4.1	1.44 ± 0.0014	1326.7 ± 5.4
303.15 K	840.63 ± 4.1	1.438 ± 0.0014	1308.6 ± 5.4
308.15 K	836.93 ± 4	1.4361 ± 0.0014	1290.7 ± 5.4
313.15 K	833.22 ± 4	1.4342 ± 0.0014	1273 ± 5.4
318.15 K	829.5 ± 4	1.4322 ± 0.0014	1255.5 ± 5.4
323.15 K	825.78 ± 4	1.4302 ± 0.0014	1238.1 ± 5.4
328.15 K	822.04 ± 4	1.4282 ± 0.0014	1221 ± 5.4
333.15 K	818.3 ± 3.9	1.4262 ± 0.0014	1204 ± 5.4
338.15 K	814.54 ± 3.9	1.4241 ± 0.0014	1187.3 ± 5.4
343.15 K	810.76 ± 3.9	1.4221 ± 0.0014	1171.3 ± 5.4

CCCCCC(=O)[O-].CCCCCCCC[NH+](CCCCCCCC)CCCCCCCC [trioctylammonium hexanoate]
viscosity [mPa·s], [1]
Settings	Cone and plate viscometry	Falling or rolling sphere viscometry
293.15 K	–	20.58 ± 2.1
298.15 K	20.59 ± 4	16.72 ± 2.1
303.15 K	–	13.76 ± 2
308.15 K	–	11.47 ± 2
313.15 K	–	9.64 ± 2
318.15 K	–	8.19 ± 2
323.15 K	–	7.04 ± 2
328.15 K	–	6.09 ± 2
333.15 K	–	5.32 ± 2
338.15 K	–	4.67 ± 2
343.15 K	–	4.14 ± 2

Settings	mass density, [1] [kg/m3]	refractive index, [2]	speed of sound, [1] [m/s]
293.15 K	848.02 ± 4.1	1.4489 ± 0.0014	1384 ± 5.4
298.15 K	844.54 ± 4.1	1.4469 ± 0.0014	1366.2 ± 5.4
303.15 K	841.06 ± 4.1	1.4451 ± 0.0014	1348.5 ± 5.4
308.15 K	837.58 ± 4	1.4432 ± 0.0014	1331 ± 5.4
313.15 K	834.1 ± 4	1.4413 ± 0.0014	1313.8 ± 5.4
318.15 K	830.61 ± 4	1.4394 ± 0.0014	1296.6 ± 5.4
323.15 K	827.12 ± 4	1.4375 ± 0.0014	1279.7 ± 5.4
328.15 K	823.62 ± 4	1.4353 ± 0.0014	1262.9 ± 5.4
333.15 K	820.12 ± 3.9	1.4336 ± 0.0014	1246.4 ± 5.4
338.15 K	816.62 ± 3.9	1.4316 ± 0.0014	1230.1 ± 5.4
343.15 K	813.12 ± 3.9	1.4294 ± 0.0014	1214.5 ± 5.4

CCCC(=O)[O-].CCCCCCCC[NH+](CCCCCCCC)CCCCCCCC [trioctylammonium butanoate]
viscosity [mPa·s], [1]
Settings	Cone and plate viscometry	Falling or rolling sphere viscometry
293.15 K	–	17.82 ± 2.1
298.15 K	16.03 ± 4	14.55 ± 2
303.15 K	–	12.06 ± 2
308.15 K	–	10.09 ± 2
313.15 K	–	8.55 ± 2
318.15 K	–	7.3 ± 2
323.15 K	–	6.3 ± 2
328.15 K	–	5.49 ± 2
333.15 K	–	4.82 ± 2
338.15 K	–	4.28 ± 2
343.15 K	–	3.82

Settings	mass density, [1] [kg/m3]	refractive index, [2]	speed of sound, [1] [m/s]
293.15 K	845.71 ± 4.1	1.4474 ± 0.0014	1377.6 ± 5.4
298.15 K	842.19 ± 4.1	1.4456 ± 0.0014	1359.6 ± 5.4
303.15 K	838.68 ± 4.1	1.4437 ± 0.0014	1341.8 ± 5.4
308.15 K	835.16 ± 4	1.4417 ± 0.0014	1324.2 ± 5.4
313.15 K	831.64 ± 4	1.4395 ± 0.0014	1306.8 ± 5.4
318.15 K	828.12 ± 4	1.4376 ± 0.0014	1289.6 ± 5.4
323.15 K	824.59 ± 4	1.4356 ± 0.0014	1272.5 ± 5.4
328.15 K	821.05 ± 3.9	1.4339 ± 0.0014	1255.6 ± 5.4
333.15 K	817.51 ± 3.9	1.4319 ± 0.0014	1239 ± 5.4
338.15 K	813.96 ± 3.9	1.43 ± 0.0014	1222.5 ± 5.4
343.15 K	810.41 ± 3.9	1.428 ± 0.0014	1206.8 ± 5.4

CCCCCC(=O)[O-].CCCCCCCC[NH+](CCCCCCCC)CCCCCCCC [trioctylammonium hexanoate] + O
Settings	mass density, [3] [kg/m3]	refractive index, [4]	speed of sound, [3] [m/s]	viscosity, [3] [mPa·s]
w2 = 0.00078	844.54 ± 2.1	1.4469 ± 0.0011	1366.2 ± 2.8	16.72 ± 2
w2 = 0.001285	844.88 ± 2.1	–	1366.9 ± 2.8	15.89 ± 2
w2 = 0.001301	–	1.4465 ± 0.0011	–	–
w2 = 0.002315	845.44 ± 2.1	–	1367.8 ± 2.8	14.49 ± 2
w2 = 0.002627	–	1.4458 ± 0.0011	–	–
w2 = 0.003049	–	1.4455 ± 0.0011	–	–
w2 = 0.003128	845.81 ± 2.1	–	1368.8 ± 2.8	13.68 ± 2

CCCCCCCC(=O)[O-].CCCCCCCC[NH+](CCCCCCCC)CCCCCCCC [trioctylammonium octanoate]
viscosity [mPa·s], [1]
Settings	Cone and plate viscometry	Falling or rolling sphere viscometry
293.15 K	–	25.02 ± 2.1
298.15 K	25.07 ± 4.1	20.3 ± 2.1
303.15 K	–	16.63 ± 2.1
308.15 K	–	13.85 ± 2
313.15 K	–	11.6 ± 2
318.15 K	–	9.84 ± 2
323.15 K	–	8.38 ± 2
328.15 K	–	7.26 ± 2
333.15 K	–	6.33 ± 2
338.15 K	–	5.54 ± 2
343.15 K	–	4.92 ± 2

Settings	mass density, [1] [kg/m3]	refractive index, [2]	speed of sound, [1] [m/s]
293.15 K	849.68 ± 4.1	1.4505 ± 0.0014	1393.1 ± 5.4
298.15 K	846.22 ± 4.1	1.4484 ± 0.0014	1375.3 ± 5.4
303.15 K	842.77 ± 4.1	1.4464 ± 0.0014	1357.6 ± 5.4
308.15 K	839.31 ± 4.1	1.4447 ± 0.0014	1340.1 ± 5.4
313.15 K	835.85 ± 4	1.4426 ± 0.0014	1322.8 ± 5.4
318.15 K	832.38 ± 4	1.4406 ± 0.0014	1305.7 ± 5.4
323.15 K	828.91 ± 4	1.4389 ± 0.0014	1288.8 ± 5.4
328.15 K	825.44 ± 4	1.4369 ± 0.0014	1272 ± 5.4
333.15 K	821.95 ± 4	1.4348 ± 0.0014	1255.5 ± 5.4
338.15 K	818.47 ± 3.9	1.4329 ± 0.0014	1239.2 ± 5.4
343.15 K	815.03 ± 3.9	1.4309 ± 0.0014	1223.7 ± 5.4
